From ChEMBL document CHEMBL3991601, “The target landscape of clinical kinase drugs” (Science, 2017)
pKd: −log10 of the molar value. Activity calls are given as the source filed them.

What was measured:
[1] = molecular target: Bone morphogenetic protein receptor type-1A (Homo sapiens, UniProt P36894)
[2] = molecular target: Serine/threonine-protein kinase MRCK gamma (Homo sapiens, UniProt Q6DT37)
[3] = molecular target: Chromodomain-helicase-DNA-binding protein 4 (Homo sapiens, UniProt Q14839)
[4] = molecular target: Dual specificity protein kinase CLK2 (Homo sapiens, UniProt P49760)
[5] = molecular target: Epidermal growth factor receptor (Homo sapiens, UniProt P00533)
[6] = molecular target: T1, Mitogen-activated protein kinase kinase kinase 3 (Homo sapiens, UniProt Q99759)
T1 sequence (Q99759 whole entry): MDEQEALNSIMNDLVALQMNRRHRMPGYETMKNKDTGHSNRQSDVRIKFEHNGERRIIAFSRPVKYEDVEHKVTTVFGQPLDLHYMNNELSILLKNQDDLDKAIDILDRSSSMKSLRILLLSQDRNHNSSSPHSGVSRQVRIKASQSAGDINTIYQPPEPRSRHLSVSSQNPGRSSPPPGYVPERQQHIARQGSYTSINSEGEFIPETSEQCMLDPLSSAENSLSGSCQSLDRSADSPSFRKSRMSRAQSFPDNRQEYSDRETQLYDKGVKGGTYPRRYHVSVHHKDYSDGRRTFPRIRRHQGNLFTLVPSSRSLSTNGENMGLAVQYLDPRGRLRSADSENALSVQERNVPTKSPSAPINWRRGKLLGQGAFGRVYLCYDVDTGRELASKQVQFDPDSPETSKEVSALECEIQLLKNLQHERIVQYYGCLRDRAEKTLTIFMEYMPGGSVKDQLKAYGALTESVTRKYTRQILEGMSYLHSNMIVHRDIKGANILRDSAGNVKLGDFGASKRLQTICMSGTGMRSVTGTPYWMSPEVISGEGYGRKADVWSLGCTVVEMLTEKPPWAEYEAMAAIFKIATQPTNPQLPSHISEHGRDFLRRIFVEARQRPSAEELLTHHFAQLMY

[7] = molecular target: Mitogen-activated protein kinase 14 (Homo sapiens, UniProt Q16539)
[8] = molecular target: Hepatocyte growth factor receptor (Homo sapiens, UniProt P08581)
Sequence of Hepatocyte growth factor receptor (P08581 whole entry): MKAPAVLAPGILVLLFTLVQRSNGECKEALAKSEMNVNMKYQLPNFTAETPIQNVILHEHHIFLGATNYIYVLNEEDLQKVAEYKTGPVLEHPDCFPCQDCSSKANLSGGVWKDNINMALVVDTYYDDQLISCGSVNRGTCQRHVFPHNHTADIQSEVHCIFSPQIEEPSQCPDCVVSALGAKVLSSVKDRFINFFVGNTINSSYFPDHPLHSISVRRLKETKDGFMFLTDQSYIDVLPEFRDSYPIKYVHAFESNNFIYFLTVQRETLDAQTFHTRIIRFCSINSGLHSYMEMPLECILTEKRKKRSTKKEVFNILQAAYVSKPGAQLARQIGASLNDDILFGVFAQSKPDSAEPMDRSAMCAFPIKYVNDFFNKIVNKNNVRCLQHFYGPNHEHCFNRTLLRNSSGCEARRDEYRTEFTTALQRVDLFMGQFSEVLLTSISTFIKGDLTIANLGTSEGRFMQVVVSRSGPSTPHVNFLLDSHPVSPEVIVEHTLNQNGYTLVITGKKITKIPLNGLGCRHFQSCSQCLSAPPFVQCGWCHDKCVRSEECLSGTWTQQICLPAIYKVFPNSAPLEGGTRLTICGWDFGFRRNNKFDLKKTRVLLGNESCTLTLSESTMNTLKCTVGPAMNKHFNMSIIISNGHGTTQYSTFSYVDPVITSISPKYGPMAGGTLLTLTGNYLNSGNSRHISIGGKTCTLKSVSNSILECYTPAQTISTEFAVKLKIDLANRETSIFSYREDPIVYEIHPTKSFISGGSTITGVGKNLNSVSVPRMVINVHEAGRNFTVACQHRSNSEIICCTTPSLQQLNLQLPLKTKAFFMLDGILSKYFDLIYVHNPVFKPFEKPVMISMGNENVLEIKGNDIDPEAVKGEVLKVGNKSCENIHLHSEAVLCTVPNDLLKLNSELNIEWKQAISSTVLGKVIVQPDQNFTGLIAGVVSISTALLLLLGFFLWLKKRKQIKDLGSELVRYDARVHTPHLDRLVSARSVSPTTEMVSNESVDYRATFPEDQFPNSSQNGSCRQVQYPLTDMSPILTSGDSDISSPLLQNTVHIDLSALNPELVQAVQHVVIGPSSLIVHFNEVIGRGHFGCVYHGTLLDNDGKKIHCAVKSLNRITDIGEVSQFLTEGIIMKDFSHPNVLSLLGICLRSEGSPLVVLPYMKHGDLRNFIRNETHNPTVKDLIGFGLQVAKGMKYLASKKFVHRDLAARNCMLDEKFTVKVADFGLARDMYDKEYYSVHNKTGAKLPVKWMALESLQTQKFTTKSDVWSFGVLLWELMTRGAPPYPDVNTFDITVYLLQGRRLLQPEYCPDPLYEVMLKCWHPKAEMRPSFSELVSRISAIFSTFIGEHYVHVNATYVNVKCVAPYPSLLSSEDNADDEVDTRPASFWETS

[9] = molecular target: High affinity nerve growth factor receptor (Homo sapiens, UniProt P04629)
Sequence of High affinity nerve growth factor receptor (P04629 whole entry, the tested form may be a part): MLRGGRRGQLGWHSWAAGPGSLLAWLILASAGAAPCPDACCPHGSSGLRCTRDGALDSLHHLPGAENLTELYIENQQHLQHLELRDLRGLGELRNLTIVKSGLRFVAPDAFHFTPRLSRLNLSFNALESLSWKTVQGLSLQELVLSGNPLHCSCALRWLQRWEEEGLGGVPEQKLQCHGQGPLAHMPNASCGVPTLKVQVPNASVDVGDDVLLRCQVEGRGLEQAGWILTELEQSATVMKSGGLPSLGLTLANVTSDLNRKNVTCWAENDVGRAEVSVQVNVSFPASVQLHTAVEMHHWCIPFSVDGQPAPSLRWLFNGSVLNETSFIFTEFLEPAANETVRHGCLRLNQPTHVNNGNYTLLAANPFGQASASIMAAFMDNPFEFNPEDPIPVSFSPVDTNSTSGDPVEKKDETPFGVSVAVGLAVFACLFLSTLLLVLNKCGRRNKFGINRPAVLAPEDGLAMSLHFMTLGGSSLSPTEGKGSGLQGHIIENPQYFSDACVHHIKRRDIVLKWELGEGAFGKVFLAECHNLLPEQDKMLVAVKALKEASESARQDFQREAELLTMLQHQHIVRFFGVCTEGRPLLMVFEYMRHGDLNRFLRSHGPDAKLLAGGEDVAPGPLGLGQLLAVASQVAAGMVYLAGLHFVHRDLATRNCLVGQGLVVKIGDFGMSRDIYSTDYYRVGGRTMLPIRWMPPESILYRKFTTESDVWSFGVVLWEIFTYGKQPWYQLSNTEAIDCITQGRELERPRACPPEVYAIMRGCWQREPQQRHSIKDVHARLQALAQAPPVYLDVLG

[10] = molecular target: PAS domain-containing serine/threonine-protein kinase (Homo sapiens, UniProt Q96RG2)
[11] = molecular target: Choline-phosphate cytidylyltransferase A (Homo sapiens, UniProt P49585)
[12] = molecular target: Phosphatidylethanolamine-binding protein 1 (Homo sapiens, UniProt P30086)
Sequence of Phosphatidylethanolamine-binding protein 1 (P30086 whole entry): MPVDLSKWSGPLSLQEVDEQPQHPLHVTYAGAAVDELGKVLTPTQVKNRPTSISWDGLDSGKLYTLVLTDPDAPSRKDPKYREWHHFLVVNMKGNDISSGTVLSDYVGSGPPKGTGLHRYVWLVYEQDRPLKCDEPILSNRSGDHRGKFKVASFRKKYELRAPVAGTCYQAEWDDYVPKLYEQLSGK

[13] = molecular target: Serine/threonine-protein kinase pim-2 (Homo sapiens, UniProt Q9P1W9)
[14] = molecular target: Proto-oncogene tyrosine-protein kinase receptor Ret (Homo sapiens, UniProt P07949)
[15] = molecular target: Rho-associated protein kinase 1 (Homo sapiens, UniProt Q13464)
[16] = molecular target: Serine/threonine-protein kinase 24 (Homo sapiens, UniProt Q9Y6E0)
[17] = molecular target: Dual specificity testis-specific protein kinase 2 (Homo sapiens, UniProt Q96S53)
Sequence of Dual specificity testis-specific protein kinase 2 (Q96S53 whole entry): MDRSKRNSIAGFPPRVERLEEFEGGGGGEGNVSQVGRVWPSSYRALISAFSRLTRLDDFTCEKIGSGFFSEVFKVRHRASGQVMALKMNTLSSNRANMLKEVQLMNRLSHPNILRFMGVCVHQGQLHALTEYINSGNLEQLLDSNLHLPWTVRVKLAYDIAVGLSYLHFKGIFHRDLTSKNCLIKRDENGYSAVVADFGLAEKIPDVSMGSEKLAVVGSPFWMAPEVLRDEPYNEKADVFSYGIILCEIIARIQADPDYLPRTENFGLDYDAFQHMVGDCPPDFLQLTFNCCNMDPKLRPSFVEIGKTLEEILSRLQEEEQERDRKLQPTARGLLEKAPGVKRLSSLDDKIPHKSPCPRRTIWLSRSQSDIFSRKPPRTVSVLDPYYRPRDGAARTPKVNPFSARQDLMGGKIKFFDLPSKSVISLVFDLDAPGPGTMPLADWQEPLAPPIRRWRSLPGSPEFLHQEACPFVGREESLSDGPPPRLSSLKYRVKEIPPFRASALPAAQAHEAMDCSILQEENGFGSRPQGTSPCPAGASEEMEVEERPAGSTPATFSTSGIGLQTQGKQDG

[18] = molecular target: DNA topoisomerase 2-alpha (Homo sapiens, UniProt P11388)
[19] = molecular target: Serine/threonine-protein kinase ATR (Homo sapiens, UniProt Q13535)
[20] = molecular target: T2, Cyclin-dependent kinase-like 5 (Homo sapiens, UniProt O76039)
T2 sequence (O76039 whole entry): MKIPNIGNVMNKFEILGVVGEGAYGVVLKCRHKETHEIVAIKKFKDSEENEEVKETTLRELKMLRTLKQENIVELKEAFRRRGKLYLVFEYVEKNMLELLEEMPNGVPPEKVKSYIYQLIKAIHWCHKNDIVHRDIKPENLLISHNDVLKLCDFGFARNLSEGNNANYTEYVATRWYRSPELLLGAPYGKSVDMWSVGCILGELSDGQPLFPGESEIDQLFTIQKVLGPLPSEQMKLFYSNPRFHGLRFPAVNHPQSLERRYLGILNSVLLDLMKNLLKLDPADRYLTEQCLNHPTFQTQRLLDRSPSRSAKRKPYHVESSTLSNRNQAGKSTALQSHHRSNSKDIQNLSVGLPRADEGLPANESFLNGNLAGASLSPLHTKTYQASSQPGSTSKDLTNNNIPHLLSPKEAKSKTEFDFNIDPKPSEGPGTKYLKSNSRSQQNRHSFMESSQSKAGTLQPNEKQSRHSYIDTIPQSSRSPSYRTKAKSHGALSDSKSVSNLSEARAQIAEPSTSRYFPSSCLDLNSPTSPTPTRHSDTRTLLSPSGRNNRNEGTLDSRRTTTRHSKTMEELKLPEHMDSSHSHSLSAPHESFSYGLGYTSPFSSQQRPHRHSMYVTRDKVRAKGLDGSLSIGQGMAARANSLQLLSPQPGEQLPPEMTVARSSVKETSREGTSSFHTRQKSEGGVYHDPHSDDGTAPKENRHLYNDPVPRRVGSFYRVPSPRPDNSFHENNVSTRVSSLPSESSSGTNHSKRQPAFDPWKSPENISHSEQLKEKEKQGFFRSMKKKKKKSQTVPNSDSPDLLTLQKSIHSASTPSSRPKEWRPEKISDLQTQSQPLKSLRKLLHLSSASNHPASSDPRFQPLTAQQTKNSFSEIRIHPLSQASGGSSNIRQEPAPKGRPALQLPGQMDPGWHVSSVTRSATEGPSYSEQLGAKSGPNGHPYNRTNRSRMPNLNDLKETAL
Note: in the data inactive means no Kd found up to 30 µM.

Sequence of Chromodomain-helicase-DNA-binding protein 4 (Q14839 whole entry): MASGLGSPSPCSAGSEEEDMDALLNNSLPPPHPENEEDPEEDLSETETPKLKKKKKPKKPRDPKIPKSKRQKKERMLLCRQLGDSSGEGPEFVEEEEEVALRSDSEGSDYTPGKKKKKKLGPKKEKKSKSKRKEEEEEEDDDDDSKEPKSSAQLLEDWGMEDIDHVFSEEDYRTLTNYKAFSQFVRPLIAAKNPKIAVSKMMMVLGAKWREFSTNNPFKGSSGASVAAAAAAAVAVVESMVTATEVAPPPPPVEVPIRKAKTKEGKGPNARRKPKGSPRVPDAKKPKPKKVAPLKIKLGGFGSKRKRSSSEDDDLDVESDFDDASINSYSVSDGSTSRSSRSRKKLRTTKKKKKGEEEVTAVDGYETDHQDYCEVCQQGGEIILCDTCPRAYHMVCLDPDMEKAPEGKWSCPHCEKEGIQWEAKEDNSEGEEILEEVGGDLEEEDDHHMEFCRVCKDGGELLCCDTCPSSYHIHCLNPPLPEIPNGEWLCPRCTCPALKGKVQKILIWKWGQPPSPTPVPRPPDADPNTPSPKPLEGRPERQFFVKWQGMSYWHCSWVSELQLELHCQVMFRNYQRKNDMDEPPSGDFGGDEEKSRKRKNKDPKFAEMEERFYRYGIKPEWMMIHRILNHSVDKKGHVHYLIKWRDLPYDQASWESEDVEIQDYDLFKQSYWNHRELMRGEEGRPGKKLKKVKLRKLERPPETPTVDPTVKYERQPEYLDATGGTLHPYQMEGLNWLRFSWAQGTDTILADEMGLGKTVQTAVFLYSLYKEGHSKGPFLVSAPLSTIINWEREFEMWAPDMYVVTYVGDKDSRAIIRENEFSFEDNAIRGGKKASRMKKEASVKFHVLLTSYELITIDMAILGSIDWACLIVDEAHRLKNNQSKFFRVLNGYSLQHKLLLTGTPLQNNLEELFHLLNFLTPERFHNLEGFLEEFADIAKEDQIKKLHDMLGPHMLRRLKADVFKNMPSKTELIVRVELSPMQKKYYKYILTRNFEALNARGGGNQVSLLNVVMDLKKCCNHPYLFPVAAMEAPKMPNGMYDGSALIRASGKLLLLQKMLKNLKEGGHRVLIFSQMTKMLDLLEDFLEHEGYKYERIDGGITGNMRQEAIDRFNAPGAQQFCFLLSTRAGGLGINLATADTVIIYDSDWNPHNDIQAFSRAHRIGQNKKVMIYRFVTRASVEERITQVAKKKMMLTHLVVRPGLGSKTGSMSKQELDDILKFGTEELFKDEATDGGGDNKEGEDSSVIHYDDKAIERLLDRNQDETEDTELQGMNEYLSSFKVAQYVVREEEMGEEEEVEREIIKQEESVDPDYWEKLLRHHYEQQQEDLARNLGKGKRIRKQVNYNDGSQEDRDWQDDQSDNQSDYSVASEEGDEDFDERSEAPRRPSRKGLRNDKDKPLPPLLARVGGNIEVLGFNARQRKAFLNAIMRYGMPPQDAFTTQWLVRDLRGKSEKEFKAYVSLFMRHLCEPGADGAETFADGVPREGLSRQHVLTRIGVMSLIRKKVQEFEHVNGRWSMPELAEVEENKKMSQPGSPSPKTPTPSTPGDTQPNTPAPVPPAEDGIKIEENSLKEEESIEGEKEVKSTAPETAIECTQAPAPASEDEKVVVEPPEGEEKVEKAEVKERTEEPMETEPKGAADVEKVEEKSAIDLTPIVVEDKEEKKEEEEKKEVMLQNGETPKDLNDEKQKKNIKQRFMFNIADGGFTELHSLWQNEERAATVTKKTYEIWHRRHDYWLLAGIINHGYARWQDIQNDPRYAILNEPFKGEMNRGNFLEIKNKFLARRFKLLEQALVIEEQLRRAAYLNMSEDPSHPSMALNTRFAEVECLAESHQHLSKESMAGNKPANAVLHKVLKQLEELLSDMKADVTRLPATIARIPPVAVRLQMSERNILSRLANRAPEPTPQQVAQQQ

Row | Kd [1] | Kd [2] | Kd [3] | Kd [4] | Kd [5] | Kd [6] | Kd [7] | Kd [8] | Kd [9] | Kd [10] | Kd [11] | Kd [12] | Kd [13] | Kd [14] | Kd [15] | Kd [16] | Kd [17] | Kd [18] | Kd [19] | pKd [9] | Kd [20] | Compound
1 | > 30 µM (inactive) | > 30 µM (inactive) | > 30 µM (inactive) | > 30 µM (inactive) | > 30 µM (inactive) | > 30 µM (inactive) | > 30 µM (inactive) | > 30 µM (inactive) | > 30 µM (inactive) | > 30 µM (inactive) | > 30 µM (inactive) | > 30 µM (inactive) | > 30 µM (inactive) | > 30 µM (inactive) | > 30 µM (inactive) | > 30 µM (inactive) | > 30 µM (inactive) | > 30 µM (inactive) |  |  |  | Cn1c(=O)c(F)c(Nc2ccc(I)cc2F)c2c(=O)n(C[C@@H](O)CO)cnc21 [TAK-733]
2 | > 30 µM (inactive) | > 30 µM (inactive) | > 30 µM (inactive) | > 30 µM (inactive) | > 30 µM (inactive) | > 30 µM (inactive) | > 30 µM (inactive) |  |  | > 30 µM (inactive) | > 30 µM (inactive) | > 30 µM (inactive) | > 30 µM (inactive) | 1.38 µM (active) | > 30 µM (inactive) | > 30 µM (inactive) |  | > 30 µM (inactive) | > 30 µM (inactive) | 5.99 |  | Cc1ccc(C(=O)Nc2ccc(Oc3cc4cnn(C)c4cc3-c3cn[nH]c3)c(F)c2)c(=O)n1-c1ccc(F)cc1 [MERESTINIB]
3 | > 30 µM (inactive) | > 30 µM (inactive) | > 30 µM (inactive) | > 30 µM (inactive) | > 30 µM (inactive) | > 30 µM (inactive) | > 30 µM (inactive) | > 30 µM (inactive) | > 30 µM (inactive) |  | > 30 µM (inactive) | > 30 µM (inactive) | > 30 µM (inactive) | > 30 µM (inactive) |  | > 30 µM (inactive) | > 30 µM (inactive) | > 30 µM (inactive) |  |  | > 30 µM (inactive) | c1cc(OCCN2CCCCC2)cc(-c2n[nH]c3ccc(-c4nc[nH]n4)cc23)c1 [CC-401]
4 | > 30 µM (inactive) | > 30 µM (inactive) | > 30 µM (inactive) | > 30 µM (inactive) | > 30 µM (inactive) | > 30 µM (inactive) |  | > 30 µM (inactive) | > 30 µM (inactive) | > 30 µM (inactive) | > 30 µM (inactive) |  | > 30 µM (inactive) | > 30 µM (inactive) | > 30 µM (inactive) | > 30 µM (inactive) |  | > 30 µM (inactive) |  |  |  | O=C(NOC[C@H](O)CO)c1ccc(F)c(F)c1Nc1ccc(I)cc1F [MIRDAMETINIB]
5 | > 30 µM (inactive) | > 30 µM (inactive) | > 30 µM (inactive) | > 30 µM (inactive) | > 30 µM (inactive) | > 30 µM (inactive) | > 30 µM (inactive) | > 30 µM (inactive) | > 30 µM (inactive) | > 30 µM (inactive) | > 30 µM (inactive) | > 30 µM (inactive) | > 30 µM (inactive) | > 30 µM (inactive) | > 30 µM (inactive) |  | > 30 µM (inactive) | > 30 µM (inactive) |  |  |  | COc1ccc(-c2ccc3ncc4c(c3c2)n(-c2ccc(N3CCNCC3)c(C(F)(F)F)c2)c(=O)n4C)cn1 [BGT-226 FREE BASE]
6 | > 30 µM (inactive) | > 30 µM (inactive) | > 30 µM (inactive) | 2.32 µM (active) |  | > 30 µM (inactive) | > 30 µM (inactive) | > 30 µM (inactive) | > 30 µM (inactive) | > 30 µM (inactive) | > 30 µM (inactive) | > 30 µM (inactive) | > 30 µM (inactive) |  | > 30 µM (inactive) |  | > 30 µM (inactive) | > 30 µM (inactive) | > 30 µM (inactive) |  | > 30 µM (inactive) | CCc1cc2c(cc1N1CCC(N3CCOCC3)CC1)C(C)(C)c1[nH]c3cc(C#N)ccc3c1C2=O [ALECTINIB]
